Tested on: 242566-281-R-J2-PDC complex spheroid viability
Assay: Anticancer human tumor 242566-281-R-J2-PDC patient-derived pancreatic carcinoma cell line growth inhibition [RAS]
Conditions: for IC50: curve of first compound; for viability, T/C: stronger effect = lower value
Procedure, shortened: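 Tumour cells grown as complex spheroids with HUVEC endothelial cells and mesenchymal stem cells, treated with RAS pathway inhibitor combinations. Each agent spans half-log steps from near clinical Cmax, or 10 microM where Cmax is unknown.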

[1] = second compound 0.000949 µM, first compound 0.0316 µM
[2] = second compound 0.000949 µM, first compound 0.1 µM
[3] = second compound 0.000949 µM, first compound 0.316 µM
[4] = second compound 0.000949 µM, first compound 1 µM
[5] = second compound 0.000949 µM, first compound 3.16 µM
[6] = second compound 0.000949 µM, first compound 10 µM
[7] = second compound 0.003 µM, first compound 0.0316 µM
[8] = second compound 0.003 µM, first compound 0.1 µM
[9] = second compound 0.003 µM, first compound 0.316 µM
[10] = second compound 0.003 µM, first compound 1 µM
[11] = second compound 0.003 µM, first compound 3.16 µM
[12] = second compound 0.003 µM, first compound 10 µM
[13] = second compound 0.00949 µM, first compound 0.0316 µM
[14] = second compound 0.00949 µM, first compound 0.1 µM
[15] = second compound 0.00949 µM, first compound 0.316 µM
[16] = second compound 0.00949 µM, first compound 1 µM
[17] = second compound 0.00949 µM, first compound 3.16 µM
[18] = second compound 0.00949 µM, first compound 10 µM
[19] = second compound 0.03 µM, first compound 0.0316 µM
[20] = second compound 0.03 µM, first compound 0.1 µM
[21] = second compound 0.03 µM, first compound 0.316 µM
[22] = second compound 0.03 µM, first compound 1 µM
[23] = second compound 0.03 µM, first compound 3.16 µM
[24] = second compound 0.03 µM, first compound 10 µM
[25] = second compound 0.0949 µM, first compound 0.0316 µM
[26] = second compound 0.0949 µM, first compound 0.1 µM
[27] = second compound 0.0949 µM, first compound 0.316 µM
[28] = second compound 0.0949 µM, first compound 1 µM
[29] = second compound 0.0949 µM, first compound 3.16 µM
[30] = second compound 0.0949 µM, first compound 10 µM
[31] = second compound 0.3 µM, first compound 0.0316 µM
[32] = second compound 0.3 µM, first compound 0.1 µM
[33] = second compound 0.3 µM, first compound 0.316 µM
[34] = second compound 0.3 µM, first compound 1 µM
[35] = second compound 0.3 µM, first compound 3.16 µM
[36] = second compound 0.3 µM, first compound 10 µM
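Note: spheroids exposed to compound for 7 days before readout.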
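Throughout, for viability, T/C: 100% = DMSO vehicle control wells.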

With CC(C)NCC(C(=O)N1CCN(c2ncnc3c2C(C)CC3O)CC1)c1ccc(Cl)cc1 (centres undefined) + CCn1c(-c2cc(N3CCN(C)CC3)cnc2C(C)OC)c2c3cc(ccc31)-c1csc(n1)CC(NC(=O)C1CC1C)C(=O)N1CCCC(N1)C(=O)OCC(C)(C)C2 the IC50 (second compound 0.000949 µM) was 7980 nM, the IC50 (second compound 0.003 µM) was 3660 nM and the IC50 (second compound 0.00949 µM) was less than 31.6 nM. For the same compound, the IC50 (second compound 0.03 µM) was less than 31.6 nM, the IC50 (second compound 0.0949 µM) was less than 31.6 nM and the IC50 (second compound 0.3 µM) was less than 31.6 nM. It also gave a viability, T/C [1] of 92.1%, a viability, T/C [2] of 92.8% and a viability, T/C [3] of 74.8%. The viability, T/C [4] was 95.2%, the viability, T/C [5] was 75.2% and the viability, T/C [6] was 43.9%. It also gave a viability, T/C [7] of 78%, a viability, T/C [8] of 70.3% and a viability, T/C [9] of 57.6%. The viability, T/C [10] was 64.8%, the viability, T/C [11] was 56.9% and the viability, T/C [12] was 28.4%. The viability, T/C [13] was 49.6%, the viability, T/C [14] was 42.6% and the viability, T/C [15] was 48.6%. The viability, T/C [16] was 41.5%, the viability, T/C [17] was 26% and the viability, T/C [18] was 17.9%. The viability, T/C [19] was 30.9%, the viability, T/C [20] was 31.8% and the viability, T/C [21] was 28.5%. For the same compound, the viability, T/C [22] was 27.1%, the viability, T/C [23] was 12% and the viability, T/C [24] was 9.97%. For the same compound, the viability, T/C [25] was 23.8%, the viability, T/C [26] was 22.7% and the viability, T/C [27] was 22.1%. For the same compound, the viability, T/C [28] was 20.8%, the viability, T/C [29] was 7.71% and the viability, T/C [30] was 5.5%. It also gave a viability, T/C [31] of 19.9%, a viability, T/C [32] of 18% and a viability, T/C [33] of 16.7%. It also gave a viability, T/C [34] of 13.1%, a viability, T/C [35] of 6.93% and a viability, T/C [36] of 3.76%.

Work on CC(Nc1ccc2c(c1)OCCn1cc(N3C(=O)OCC3C(F)F)nc1-2)C(N)=O (centres undefined) + CCn1c(-c2cc(N3CCN(C)CC3)cnc2C(C)OC)c2c3cc(ccc31)-c1csc(n1)CC(NC(=O)C1CC1C)C(=O)N1CCCC(N1)C(=O)OCC(C)(C)C2 yielded an IC50 (second compound 0.000949 µM) of 364 nM, an IC50 (second compound 0.003 µM) of 95.1 nM and an IC50 (second compound 0.00949 µM) of less than 31.6 nM. For the same compound, the IC50 (second compound 0.03 µM) was less than 31.6 nM, the IC50 (second compound 0.0949 µM) was less than 31.6 nM and the IC50 (second compound 0.3 µM) was less than 31.6 nM. For the same compound, the viability, T/C [1] was 85.8%, the viability, T/C [2] was 85.2% and the viability, T/C [3] was 39.8%. It also gave a viability, T/C [4] of 39.1%, a viability, T/C [5] of 26.5% and a viability, T/C [6] of 11.5%. It also gave a viability, T/C [7] of 70.6%, a viability, T/C [8] of 47.3% and a viability, T/C [9] of 32.9%. It also gave a viability, T/C [10] of 22.4%, a viability, T/C [11] of 14.5% and a viability, T/C [12] of 5.29%. The viability, T/C [13] was 40.7%, the viability, T/C [14] was 25.1% and the viability, T/C [15] was 18.2%. For the same compound, the viability, T/C [16] was 11.3%, the viability, T/C [17] was 4.65% and the viability, T/C [18] was 3.19%. The viability, T/C [19] was 26.4%, the viability, T/C [20] was 17.9% and the viability, T/C [21] was 10.6%. For the same compound, the viability, T/C [22] was 5.37%, the viability, T/C [23] was 1.87% and the viability, T/C [24] was 1.22%. The viability, T/C [25] was 16.7%, the viability, T/C [26] was 11.5% and the viability, T/C [27] was 7.81%. The viability, T/C [28] was 3.68%, the viability, T/C [29] was 1.35% and the viability, T/C [30] was 0.91%. The viability, T/C [31] was 16.5%, the viability, T/C [32] was 11.3% and the viability, T/C [33] was 5.47%. It also gave a viability, T/C [34] of 3.22%, a viability, T/C [35] of 1.55% and a viability, T/C [36] of 1.07%.

From PubChem BioAssay AID2060910 (Molecular Pharmacology Branch, DTP, NCI, 2025)
